Test [1] concerns high affinity tryptophan transporter. As to the kind of experiment: Competition of unlabeled substrates with radiolabeled tryptophan uptake, high-affinity system, macrophages. It is filed as cell-based, human.
Procedure: Uptake measurements. Single cell suspensions were obtained by treating macrophage monolayers with 2 mM EDTA in Hanks balanced salt solution for 15 minutes at room temperature. Cells were washed twice in Tris-choline buffer (150 mM choline chloride, 10 mM tris, pH 7.4), suspended in Tris-choline at between one and 2×10^6 cells/ml, and 100 μl/well added to 96 well microtiter plates. Titrations of radiolabeled amino acids were then transferred to the assay plate and uptake allowed to proceed for 10 minutes (the linear range). At the end of the assay period, wells were harvested simultaneously onto glass-fiber filters and washed vigorously for 30 seconds with phosphate buffered saline solution using a Tomtec 96 well parallel harvester. Nonspecific binding of radioactivity to the filters (based on wells without cells) was typically less than 10% of the total signal, and was subtracted from each data point. All assays were performed in triplicate; where error bars are not shown the SD between replicates was less than 10%. In all assays, the uptake rate (V) was normalized per 1×10^6 cells (expressed as pmol 10^6 cells^−1. 10 min^−1). Normalization to milligrams protein was considered less informative because protein content can change markedly during macrophage differentiation, independently of other functional attributes.
The test system of test [2] is system L. Put plainly: Competition of unlabeled substrates with radiolabeled tryptophan uptake, system L component, macrophages. It is filed as cell-based, human. To be noted: for Ki: read-out: Ki (fit to Equation 1, single-system competitive model). The text has this: (§1) For competitive inhibition studies, the Ki value for each competitor was estimated by fitting the measured inhibition curve to the formula in Equation 1 (Cheng and Prusoff 1973, Biochem. Pharmacol. 22, 3099-3108). [formula]
(§2) where [S] is the concentration of labeled substrate, [I] is the concentration of unlabeled inhibitor, Vi is the observed rate of uptake in the presence of inhibitor, Ki is the putative affinity constant of the inhibitor for the transporter, and Km and Vmax have their customary meanings.

The test system of test [3] is system L. Put plainly: Competition of unlabeled tryptophan for uptake of radiolabeled leucine or phenylalanine, macrophages. The class given is cell-based, human. To be noted: labeled leucine or phenylalanine 125 nM.
Excerpt: as §1, §2

Test [4] deals with high affinity tryptophan transporter.
Procedure: Human peripheral blood monocytes were isolated from healthy volunteer donors by leukocytapheresis and counterflow centrifugal elutriation, following appropriate informed consent under a protocol approved by our Institutional Review Board.
Single cell suspensions were obtained by treating macrophage monolayers with 2 mM EDTA in Hanks balanced salt solution for 15 minutes at room temperature. Cells were washed twice in Tris-choline buffer (150 mM choline chloride, 10 mM tris, pH 7.4), suspended in Tris-choline at between one and 2×10^6 cells/ml, and 100 μl/well added to 96 well microtiter plates. […] Nonspecific binding of radioactivity to the filters (based on wells without cells) was typically less than 10% of the total signal, and was subtracted from each data point. […] In all assays, the uptake rate (V) was normalized per 1×10^6 cells (expressed as pmol 10^6 cells^−1. 10 min^−1). […]
Uptake kinetics were analyzed using an Eadie-Hofstee transformation (V/[S] vs. V) to identify linear concentration ranges for each transporter. Data from these two ranges were then analyzed separately using double-reciprocal (Lineweaver-Burk, 1/[S] vs. 1/V) plots to determine Km and Vmax. […] Kinetic parameters were calculated on a minimum of 4-6 points, and were considered reliable if the correlation coefficient of the regression line was greater than 0.95. […]
Test [5] deals with system L. To be noted: read-out: reported Km of system L for tryptophan; reported affinity; cited from earlier work.
For test [6], the system named is monocyte derived macrophages. As to the kind of experiment: Total tryptophan uptake in monocyte-derived macrophages (sodium and temperature dependence). The class given is cell-based, human. As for the experimental part:
The majority of tryptophan uptake is sodium-independent. Uptake in the absence of sodium was 86±6% of uptake in saline, n=4 Therefore all subsequent assays were performed in the absence of sodium.

Test [7] concerns system L. As to the kind of experiment: Radiolabeled amino acid uptake saturation kinetics, lower-affinity system, macrophages. It is filed as cell-based, human. To be noted: for Km: read-out: Km of low affinity transporter (system L). The text has this:
Monocyte isolation and culture.
Analysis of saturation kinetics.

Where [8] appears, read: unlabeled competitor 4 μM, radiolabeled tryptophan 125 nM.
[9] abbreviates: read-out: IC50 for inhibition of radiolabeled tryptophan uptake, radiolabeled tryptophan 125 nM.
The mark [10] stands for this setting: unlabeled competitor vs radiolabeled tryptophan (125 or 250 nM).
The mark [11] stands for this setting: uptake of the radiolabeled amino acid, high substrate concentrations (8-64 μM).

“And” between values parts separate entries of the source, which are not always exact repeats. Identical values can stand only once. “Also recorded” adds a separate entry of the source. Like-named read-outs stand apart in the source and are kept apart here.

As for `N[C@@H](Cc1c[nH]cn1)C(=O)O` [HIS], in test [1] (setting [8]), the “effect of 4 μM unlabeled competitor on tryptophan uptake” value (shortened to “effect of 4 μM unlabeled competitor”) is listed as “little impact”.

On to `NC1(C(=O)O)CC2CCC1C2` (centres unmarked) [BCH, 2-aminobicyclo(2,2,1)-hepatane-2-carboxylic acid], for which the “mode of inhibition of tryptophan uptake, system L range” value in the test on system L [2] (greater than 8 μM tryptophan, 500 μM unlabeled BCH) was “competitive inhibitor; also recorded: competitively inhibits”. In addition, the “IC50 of BCH relative to IC50 of tryptophan” value with system L [2] (inhibition of tryptophan transport, radiolabeled tryptophan 125 nM) is given as “approximately 100 fold”. For the same compound, the “inhibition of tryptophan transport by 8 mM unlabeled substrate” value in the test on system L [2] (radiolabeled tryptophan 125 nM, unlabeled substrates 8 mM each) is listed as “inhibited”. Besides, the Ki (commonly the dissociation constant of the complex between target and ligand, obtained from inhibition or displacement) at system L [2] (radiolabeled tryptophan 125 nM) worked out at 37 µM. Moreover, the IC50 (in general, the midpoint of a concentration-inhibition curve) was 37 µM with system L [2] (setting [9]) and > 500 µM in test [1] (saturation kinetics of tryptophan (<1 μM) with or without 500 μM BCH, read-out: IC50 for interaction with the high-affinity system). For the same compound, in test [1] (less than 1 μM tryptophan, 500 μM unlabeled BCH), the “mode of inhibition of tryptophan uptake, high-affinity range” value is “strictly non-competitive; also recorded: weak non-competitive inhibitor”. Also, in test [1] (setting [8]), the “effect of 4 μM unlabeled competitor” value is on record as “minimal effect; also recorded: little impact”. The “competition with tryptophan for the high-affinity system” value (“competition with tryptophan” for short) in test [1] (setting [10]) is recorded as “no evidence of competition; also recorded: did not compete; also recorded: not able to compete”.

As to `N[C@H](Cc1c[nH]c2ccccc12)C(=O)O` [D-tryptophan], the “competition with tryptophan” value in test [1] was “did not compete”.

As to `NCCc1c[nH]c2ccc(O)cc12` [serotonin], the “competition with tryptophan” value in test [1] (setting [10]) is “did not compete”.

Turning to `N[C@@H](Cc1c[nH]c2ccccc12)C(=O)O` [tryptophan], in the test on system L [3], the “high-affinity inhibition of phenylalanine or leucine uptake” value is on record as “no detectable”. For the same compound, the Ki is 30 µM on system L [3] (read-out: Ki of tryptophan versus labeled leucine or phenylalanine uptake) and 0.36 µM in test [1] (radiolabeled tryptophan 125 nM, read-out: Ki (fit to Equation 1, single-system model)). Besides, the Km (usually the substrate concentration at which the rate is half of its maximum) in test [4] is 0.29 ± 0.16 µM; in the test on system L [5] it was 8 to 30 µM; in the test on system L [7], 27 µM and 30 µM and 20 to 30 µM. The “calculated uptake with the selective high-affinity system present” value in test [4] is given as 70 fmol 10^6 cells^−1. 10 min^−1. Besides, in test [6] (0° C. vs 25° C., up to 30 min), the “reduction of the rate of tryptophan accumulation at 0° C.” value is given as 90%. Moreover, in test [6] (radiolabeled tryptophan 125 nM, choline chloride vs 150 mM NaCl), the “uptake in the absence of sodium relative to uptake in saline” value was 86% and 86±6%. Also, the “calculated uptake via system L alone” value in the test on system L [7] (Equation 1, 50 nM tryptophan, 1 mM total other competing amino acids) is 1.5 fmol 10^6 cells^−1. 10 min^−1. The results for the “Vmax, system L component” value in the test with system L [7] (after macrophage differentiation) and in the test with system L [7] (before macrophage differentiation) were 27±4 pmol 10^6 cells^−1. 10 min^−1 and 14±8 pmol 10^6 cells^−1. 10 min^−1, respectively. Further, in test [1] (setting [9]), the IC50 turned out to be 0.36 µM. In test [1] (setting [8]), the “effect of 4 μM unlabeled competitor” value is reported as “markedly inhibited”.

Turning to `N=C(N)NCCC[C@H](N)C(=O)O` [ARG], in test [1], the “effect of 4 μM unlabeled competitor” value is listed as “little impact”.

On to `CSCC[C@H](N)C(=O)O` [MET], for which, in test [1] (setting [8]), the “effect of 4 μM unlabeled competitor” value is given as “little impact”.

Consider `NCCCC[C@H](N)C(=O)O` [LYS], for which the “effect of 4 μM unlabeled competitor” value in test [1] (setting [8]) is “little impact”.

As to `CC(C)C[C@H](N)C(=O)O` [leucine], the Km with system L [7] (setting [11]) came to 26 ± 6 µM. In addition, the “effect of 4 μM unlabeled competitor” value in test [1] (setting [8]) was “little impact”. Also, in test [1] (setting [10]), the “competition with tryptophan” value is given as “do not compete”.

Regarding `CC[C@H](C)[C@H](N)C(=O)O` [ILE], in test [1] (setting [8]), the “effect of 4 μM unlabeled competitor” value is recorded as “little impact”.

`C[C@@H](O)[C@H](N)C(=O)O` [THR]: in test [1] (setting [8]), the “effect of 4 μM unlabeled competitor” value is recorded as “little impact”.

Take `N[C@@H](Cc1ccc(O)cc1)C(=O)O` [TYR, tyrosine]: in test [1] (setting [8]), the “effect of 4 μM unlabeled competitor” value is listed as “little impact”.

Consider `N[C@@H](Cc1ccccc1)C(=O)O` [phenylalanine], for which, at system L [2] (radiolabeled tryptophan 125 nM), the inhibition constant (Ki) is ~10 µM. Further, in the test with system L [7] (setting [11]), the Km came out at 29 ± 2 µM. The “effect of 4 μM unlabeled competitor” value in test [1] (setting [8]) is listed as “little impact”. Besides, the “competition with tryptophan” value in test [1] (setting [10]) was “do not compete; also recorded: no detectable competition”.

On to `CC(C)[C@H](N)C(=O)O` [VAL], for which the “effect of 4 μM unlabeled competitor” value in test [1] (setting [8]) is “little impact”.

For the compound `N[C@@H](Cc1c[nH]c2ccc(O)cc12)C(=O)O` [5-hydroxy tryptophan], the “competition with tryptophan” value in test [1] (setting [10]) is reported as “did not compete”; in test [1] (unlabeled competitor vs radiolabeled tryptophan (125 or 250 nM), listed as 5-hydroxy derivative of tryptophan) it was “failed to compete”.

Turning to `Cn1cc(C[C@H](N)C(=O)O)c2ccccc21` [1-methyl tryptophan], in test [1] (setting [10]), the “competition with tryptophan” value is “no competition”.

Take `CC(=O)N[C@@H](Cc1c[nH]c2ccccc12)C(=O)O` [N-acetyl tryptophan]: the “competition with tryptophan” value in test [1] (setting [10]) is given as “did not compete”.

Source of the values: patent US6395876B1 (Medical College of Georgia Research Institute, Inc., priority 1997, dated 2002).
